Measured values reported in patent US20030104079A1, “Skin tissue regeneration promoters comprising ginsenoside Rb1” (Japan Science and Technology Corporation, Japan, priority 2000, published 2003).

What was measured:
[1] = system: cultured nerve cells (neurons); experiment: SNP-induced apoptosis of cultured nerve cells, MAP2 immunoblotting; format: cell-based, rats
From the text: We (Sakanaka and Tanaka) had reported that when cultured nerve cells were exposed for a short time to sodium nitroprusside, apoptosis or apoptosis-like cell death of neurons is induced (Toku, K. et al., J. Neurosci. Res., 53, 415-425, 1998). […] We have examined the neuroprotective action of dihydroginsenoside Rb1 using the same experimental system.
Nerve cells were isolated from the cerebral cortices of fetal rats at gestation day 17 by using trypsin EDTA and seeded onto 24 well plate coated with poly-L-lysine. After incubating the cells in Dulbecco's modified Eagle's medium (DMEM) containing 10% fetal calf serum for 16 hours, the culture medium was replaced with a serum-free medium for neuronal culture containing insulin, transferrin, etc. and the neurons were cultured for 3 or 4 days. On day 3 or 4 of culture, sodium nitroprusside (SNP) at the concentration of 300 μM was added to the neuronal culture and incubated for 10 minutes. […] In order to quantify the survival rate of nerve cells or neurons, immunostained MAP2 band was analyzed with densitometry. […]
Nerve cells were isolated from cerebral cortices of fetal rats on gestation day 17 by using trypsin EDTA and seeded onto a 24 well plate(s) coated with poly-L-lysine. […] In order to quantify survival rate of nerve cells, immunostained MAP2 band was analyzed with densitometry.

open wound of rat skin = experiment: Open wound healing by external or topical application to skin (propet ointment); format: in vivo, rats; settings: for action to promote wound healing: sprayed or spread on the local open wound of rats' skin, inventors' experiences
From the text: For that purpose, for example, by using Wistar male rats (body weight about 300 g), the punch biopsies with diameter 6 mm were made in the dorsal region of animals after shaving under inhalation anesthesia to prepare 3 regions of open wound. Among them, 0.1 g of ophthalmic white Vaseline (Propet) containing 0.01% by weight or 0.001% by weight of ginsenoside Rb1 was spread once for every day in two regions, and in the remaining open wound, the equal amount of ophthalmic white Vaseline (propet) was spread. Nine days after preparing open wound, the skin including wound regions was photographed. Further, we have examined the effects of external or topical cutaneous spread of 0.0001% by weight, 0.00001% by weight or 0.000001% by weight of ginsenoside Rb1 by the same procedure. Experimental animals were euthanized by anesthetia immediately before photographing, then wound regions were dissected out after photographing or after dissecting out wound regions, photographing was performed. Thereafter, the wound region tissues were stored in the fixative. FIG. 5 and FIG. 6 are photographs in place of drawings.
The punch biopsy with diameter 6 mm was performed in the dorsal 6 regions of each animal under inhalation anesthesia to prepare open wound. Thereafter, 0.1 g of propet (ophthalmic white vaseline) containing ginsenoside Rb1 at the concentrations of 0.0001% by weight (10^−4% by weight), 0.00001% by weight (10^−5% by weight), 0.000001% by weight (10^−6% by weight), 0.0000001% by weight (10^−7% by weight) and 0.00000001% by weight (10^−8% by weight), respectively, was applied externally, once a day, for 9 days on each open wound. The equal amount of propet alone was applied externally or topically in the control animals. Then, immediately after euthanasia by anesthetization, the skin containing the open wound was dissected out and photographed. The collected skin tissue was preserved in a fixative. FIG. 12 is a photograph in place of drawing.
In each case, there are three wounds on the left side and three wounds on the right side, totally 6 marks of open wounds.
In the experimental cases hereinbefore explained, an area of open wound (flair region) applied externally only with propet is set as a denominator and an area of open wound administered externally with ginsenoside Rb1 at concentrations from 10^−4% by weight to 10^−8% by weight is set as a numerator, and ratio thereof is calculated. In FIG. 13, n=3 and single asterisk (*) indicates significant difference, P<0.05, and two asterisks (**) indicate significant difference, P<0.01. Statistical test was performed according to Scheffe's post hoc test.
Details of dihydroginsenoside Rb1 is described in the specification of PCT/JP00/04102 (Brain cell or nerve cell protecting agents comprising ginseng). The punch biopsy with diameter 6 mm was performed at 5 places in the dorsal region of rats (n=4) under inhalation anesthesia to prepare open wound. Thereafter, 0.1 g of propet containing dihydroginsenoside Rb1 at concentrations of 0.0001% by weight (10^−4% by weight), 0.00001% by weight (10^−5% by weight), 0.000001% by weight (10^−6% by weight) and 0.0000001% by weight (10^−7% by weight), respectively, was applied topically or externally, once a day, for 9 days onto each open wound. The equal amount of propet alone was applied externally or topically in the control animals. Then, immediately after euthanasia by anesthetization, the skin containing the open wound was dissected out and photographed. The collected skin tissue was preserved in a fixative. FIG. 14 is a photograph in place of drawing. In FIG. 14, four cases are shown, and from the upper column, the first case, the second case, the third case and the fourth case are shown.

cerebral infarct lesion = settings: intravenous 6 pg/day-60 pg/day, rats weighing 300 g; PCT/JP00/04102; cited from earlier work
[2] = Observation of administered animals for side effects; format: in vivo, rats; settings: present experiments, animals carefully observed
From the text: The amount of administration of ginsenoside Rb1, which is used as the preparation(s) for external or topical application to skin or the preparation(s) for external or topical application to mucosa, is far smaller than the amount of intravenous administration.
Actually, as indicated in PCT/JP00/04102 (Brain cell or nerve cell protecting agents comprising ginseng), as far as directing treatment or therapy of cerebral infarction by continuous intravenous administration in a dose of […] (weighing 300 g), dihydroginsenoside Rb1 is thought to be a quite safe pharmaceutical composition. The amount of administration of ginsenoside Rb1, which is used as the preparation(s) for external or topical application to skin or the preparation(s) for external or topical application to mucosa, is far smaller than the amount of intravenous administration.

CC(C)CCC[C@](C)(O[C@@H]1O[C@H](CO[C@@H]2O[C@H](CO)[C@@H](O)[C@H](O)[C@H]2O)[C@@H](O)[C@H](O)[C@H]1O)[C@H]1CC[C@]2(C)[C@@H]1[C@H](O)C[C@@H]1[C@@]3(C)CC[C@H](O[C@@H]4O[C@H](CO)[C@@H](O)[C@H](O)[C@H]4O[C@@H]4O[C@H](CO)[C@@H](O)[C@H](O)[C@H]4O)C(C)(C)[C@@H]3CC[C@]12C [dihydroginsenoside Rb1]
apoptosis or apoptosis-like cell death of neurons caused by SNP, MAP2 band (FIG. 16) ([1]; 0.01 fg/ml (lane 3) to 1 ng/ml (lane 7), SNP 300 μM 10 minutes, 16 hours after SNP): obviously inhibited | apoptosis or apoptosis-like cell death of nerve cells, MAP2 densitometry (FIG. 17) ([1]; 0.01 fg/ml to 1 ng/ml, n=5, P<0.001 / P<0.0001): significantly inhibited | ratio of open wound area to propet alone (FIG. 15) (open wound of rat skin; 0.00001% by weight (10^−5% by weight) or less, n=4, Fisher's PLSD P<0.05): facilitated significantly wound healing | therapeutic effect on open wound in rats (open wound of rat skin; 0.0001% by weight (10^−4% by weight)): trivial | area of open wound region relative to control (open wound of rat skin; dihydroginsenoside Rb1 at 10^−5%, 10^−6% or 10^−7% by weight): ½-¼ | hair growth in wound healing region (FIG. 14) (open wound of rat skin; low concentrations of dihydroginsenoside Rb1): obvious hair growth was observed | wound healing vs propet alone (FIG. 14) (open wound of rat skin; propet containing 10^−5% to 10^−7% by weight (100 ng/g to 1 ng/g), once a day for 9 days, n=4): wound healing was obviously promoted | therapeutic effect on brain infarction (cerebral infarct lesion): excellent therapeutic effect on brain infarction | side effect in administered animals [2]: no side effect was noted

EGF: epidermal growth factor
action to promote wound healing (open wound of rat skin): inferior to the effects of continuous intravenous administration of ginsenoside Rb1

PDGF
action to promote wound healing (open wound of rat skin): inferior to the effects of continuous intravenous administration of ginsenoside Rb1

bFGF: basic fibroblast growth factor
action to promote wound healing (open wound of rat skin): inferior to the effects of continuous intravenous administration of ginsenoside Rb1
